Earlier results on 2 molecules are cited in patent US20240294879A1, “STEM CELL DIFFERENTIATION AND POLYMERS” (VERTEX PHARMACEUTICALS INCORPORATED, priority 2021, published 2024).

In this data set the target is EZH2 (Homo sapiens, UniProt Q15910).
Sequence of EZH2 (Q15910 whole entry, species assumed): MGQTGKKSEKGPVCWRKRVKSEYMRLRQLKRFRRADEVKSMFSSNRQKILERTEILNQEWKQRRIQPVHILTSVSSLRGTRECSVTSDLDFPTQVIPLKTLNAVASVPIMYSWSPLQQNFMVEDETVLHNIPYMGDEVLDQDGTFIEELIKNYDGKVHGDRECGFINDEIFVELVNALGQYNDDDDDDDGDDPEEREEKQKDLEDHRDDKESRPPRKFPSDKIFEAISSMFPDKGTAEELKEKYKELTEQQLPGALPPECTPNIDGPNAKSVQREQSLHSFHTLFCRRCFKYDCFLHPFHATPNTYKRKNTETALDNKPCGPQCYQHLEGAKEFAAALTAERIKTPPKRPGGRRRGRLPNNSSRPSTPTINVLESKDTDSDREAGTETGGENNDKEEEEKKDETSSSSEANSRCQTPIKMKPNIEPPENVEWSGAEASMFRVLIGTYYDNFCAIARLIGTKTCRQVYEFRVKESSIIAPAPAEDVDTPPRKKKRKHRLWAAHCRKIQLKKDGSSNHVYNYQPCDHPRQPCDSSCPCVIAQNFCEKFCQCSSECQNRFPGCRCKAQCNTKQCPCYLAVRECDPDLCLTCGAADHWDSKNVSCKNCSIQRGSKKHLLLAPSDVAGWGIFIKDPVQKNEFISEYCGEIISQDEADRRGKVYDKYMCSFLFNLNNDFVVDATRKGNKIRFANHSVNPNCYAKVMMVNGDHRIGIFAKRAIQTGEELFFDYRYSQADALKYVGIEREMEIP
Sequence of EZH2 (O75530 whole entry partner, species assumed): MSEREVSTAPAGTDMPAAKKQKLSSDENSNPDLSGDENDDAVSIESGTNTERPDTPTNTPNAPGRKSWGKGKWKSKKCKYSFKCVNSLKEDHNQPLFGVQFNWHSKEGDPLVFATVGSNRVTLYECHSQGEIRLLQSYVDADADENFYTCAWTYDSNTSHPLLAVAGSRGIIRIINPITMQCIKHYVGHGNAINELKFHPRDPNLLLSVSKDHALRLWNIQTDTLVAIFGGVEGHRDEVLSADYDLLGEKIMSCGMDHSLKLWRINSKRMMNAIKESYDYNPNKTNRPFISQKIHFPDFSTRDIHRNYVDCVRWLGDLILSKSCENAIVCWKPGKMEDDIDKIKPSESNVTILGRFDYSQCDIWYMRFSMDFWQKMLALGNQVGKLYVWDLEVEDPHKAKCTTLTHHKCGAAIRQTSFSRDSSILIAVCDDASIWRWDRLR
Sequence of EZH2 (Q15022 whole entry partner, species assumed): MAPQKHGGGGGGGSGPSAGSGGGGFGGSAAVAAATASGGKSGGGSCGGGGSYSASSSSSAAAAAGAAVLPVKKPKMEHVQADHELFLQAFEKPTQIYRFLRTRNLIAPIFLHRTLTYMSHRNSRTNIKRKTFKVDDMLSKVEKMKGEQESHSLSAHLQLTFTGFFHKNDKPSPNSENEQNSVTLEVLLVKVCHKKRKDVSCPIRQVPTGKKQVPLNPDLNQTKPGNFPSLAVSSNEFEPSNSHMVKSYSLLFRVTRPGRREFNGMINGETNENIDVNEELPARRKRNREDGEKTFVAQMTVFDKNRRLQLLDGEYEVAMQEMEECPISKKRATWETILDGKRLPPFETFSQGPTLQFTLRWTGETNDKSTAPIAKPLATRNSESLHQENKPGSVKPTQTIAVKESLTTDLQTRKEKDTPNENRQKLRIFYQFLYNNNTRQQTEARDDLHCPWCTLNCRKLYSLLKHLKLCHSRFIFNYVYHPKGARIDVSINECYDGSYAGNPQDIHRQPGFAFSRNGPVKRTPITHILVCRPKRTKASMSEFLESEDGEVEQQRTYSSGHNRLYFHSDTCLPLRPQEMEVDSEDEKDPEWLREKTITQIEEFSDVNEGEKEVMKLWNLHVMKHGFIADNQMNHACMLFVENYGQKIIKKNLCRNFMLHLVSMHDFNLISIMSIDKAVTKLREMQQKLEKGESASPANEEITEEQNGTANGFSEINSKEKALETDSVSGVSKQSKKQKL

With `CC[C@H](C)n1cc(C)c2c(C(=O)NCc3c(C)cc(C)[nH]c3=O)cc(-c3ccc(N4CCNCC4)nc3)cc21` [GSK126], the “selectivity over EZH1” value (EZH2 versus EZH1) is given as 150 fold.
For `CCCc1cc(C)[nH]c(=O)c1CNC(=O)c1cc(-c2ccc(N3CCN(C(C)C)CC3)nc2)cc2c1cnn2C(C)C` [UNC1999], the “selectivity relative to GSK126” value (EZH2 inhibitor) is listed as “less selective”.
